For data set [1], the system named is male DIO mice (wild-type C57Bl6/J on high-fat diet). In words: Intraperitoneal glucose tolerance test in wild-type mice with diet-induced obesity. As to conditions: AM3506 1 mg/kg i.p., 60 min before glucose 1.5 g/kg i.p., 1 mg/kg. It is filed as in vivo. As for the experimental part: Male C57Bl6/J mice, wild-type or liver-specific CB1 receptor knockout, were kept on a diet containing 60% of calories as fat (Research Diets Inc) for 14 weeks, by which time both strains have become fat due to increased adipose mass. […] Sixty minutes later the mice received 1.5 g/kg glucose i.p. and blood glucose levels were monitored for 2 hours.

For data set [2], the target named is CB2 cannabinoid receptor (Homo sapiens, UniProt P34972). Briefly: Affinity for the CB2 cannabinoid receptor. The class given is binding.
CB2 cannabinoid receptor, sequence (P34972 whole entry): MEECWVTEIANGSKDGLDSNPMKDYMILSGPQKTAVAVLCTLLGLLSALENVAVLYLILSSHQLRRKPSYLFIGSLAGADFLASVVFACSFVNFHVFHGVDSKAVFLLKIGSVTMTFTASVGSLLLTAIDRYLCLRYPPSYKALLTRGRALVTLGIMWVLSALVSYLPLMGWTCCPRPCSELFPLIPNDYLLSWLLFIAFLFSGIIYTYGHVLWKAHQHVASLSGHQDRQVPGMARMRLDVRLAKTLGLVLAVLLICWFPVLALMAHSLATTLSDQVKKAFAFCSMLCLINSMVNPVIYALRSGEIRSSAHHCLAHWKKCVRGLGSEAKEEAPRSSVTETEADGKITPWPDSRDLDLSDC
For data set [3], the target named is T1, FAAH (Rattus norvegicus, UniProt P97612).
T1 construct: from tissue; host or cells: liver of SHR and WKY rats treated in vivo
T1 sequence (P97612 1-579): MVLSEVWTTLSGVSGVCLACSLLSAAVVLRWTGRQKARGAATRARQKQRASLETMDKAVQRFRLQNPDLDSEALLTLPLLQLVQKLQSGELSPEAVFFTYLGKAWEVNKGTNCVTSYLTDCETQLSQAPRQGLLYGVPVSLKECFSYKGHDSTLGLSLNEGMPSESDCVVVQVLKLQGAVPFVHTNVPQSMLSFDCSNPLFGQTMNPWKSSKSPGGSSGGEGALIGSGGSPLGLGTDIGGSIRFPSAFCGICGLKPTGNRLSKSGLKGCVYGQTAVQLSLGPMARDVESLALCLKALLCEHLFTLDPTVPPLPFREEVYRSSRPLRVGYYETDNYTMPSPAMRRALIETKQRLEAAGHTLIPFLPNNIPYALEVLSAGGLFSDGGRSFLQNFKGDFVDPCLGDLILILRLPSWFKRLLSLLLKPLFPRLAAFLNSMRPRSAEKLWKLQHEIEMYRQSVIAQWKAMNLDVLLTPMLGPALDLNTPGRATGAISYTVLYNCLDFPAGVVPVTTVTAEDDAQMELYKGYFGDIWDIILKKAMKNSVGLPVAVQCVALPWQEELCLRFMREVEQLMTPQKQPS
Briefly: FAAH inhibition in vitro, crude rat brain homogenate with [3H]anandamide. It is filed as biochemical. On the procedure: This example describes a general method for assaying FAAH inhibition by the disclosed compounds and determining their IC50 values in vitro (Deutsch, D. G. and S. A. Chin, Biochem. Pharmacol. 46:791-796 (1993)). The indicated amount of each compound was preincubated in a buffer consisting of 300 μg of crude rat brain homogenate protein, 500 μg/ml fatty acid-free bovine serum albumin, in phosphate-buffered saline in a final volume of 1.0 ml, for 10 minutes at 37° C. Crude rat brain homogenate was obtained by decapitating female adult Sprague-Dawley rats, dissecting the desired tissue and homogenizing in five volumes of ice-cold TE (10 mM Tris-HCl, 1 mM EDTA, pH 7.6). Substrate ([…] anandamide+0.2 µCi of 221 Ci/mmol [^3H]anandamide ([arachidonyl-5,6,8,9,11,12,14,15-^3H]ethanolamide)) was then added and the samples incubated for 10 minutes. The reaction was quenched by the addition of chloroform:methanol (1:1) and enzyme activity was analyzed by TLC.

The target in data set [4] is CB1 cannabinoid receptor (Homo sapiens, UniProt P21554). In words: Affinity for the CB1 cannabinoid receptor. The class given is binding.
CB1 cannabinoid receptor, sequence (P21554 whole entry): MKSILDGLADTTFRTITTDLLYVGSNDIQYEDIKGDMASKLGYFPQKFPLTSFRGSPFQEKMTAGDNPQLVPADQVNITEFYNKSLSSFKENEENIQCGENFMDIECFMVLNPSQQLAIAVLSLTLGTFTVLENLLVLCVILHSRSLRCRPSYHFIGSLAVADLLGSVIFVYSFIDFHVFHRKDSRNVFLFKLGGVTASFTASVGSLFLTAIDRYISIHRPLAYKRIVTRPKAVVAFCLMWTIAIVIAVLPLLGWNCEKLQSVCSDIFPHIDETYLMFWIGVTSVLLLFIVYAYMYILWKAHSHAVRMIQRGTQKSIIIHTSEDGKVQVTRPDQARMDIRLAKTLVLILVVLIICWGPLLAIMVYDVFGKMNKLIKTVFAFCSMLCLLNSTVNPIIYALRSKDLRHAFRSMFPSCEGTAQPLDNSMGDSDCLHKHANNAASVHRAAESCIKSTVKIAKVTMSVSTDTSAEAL
In data set [5] the target is T2, FAAH (Mus musculus, UniProt O08914).
T2 construct: the brain and liver removed, and tissue homogenates prepared as described above; from tissue; host or cells: mouse brain and liver homogenates after in vivo dosing
T2 sequence (O08914 1-579): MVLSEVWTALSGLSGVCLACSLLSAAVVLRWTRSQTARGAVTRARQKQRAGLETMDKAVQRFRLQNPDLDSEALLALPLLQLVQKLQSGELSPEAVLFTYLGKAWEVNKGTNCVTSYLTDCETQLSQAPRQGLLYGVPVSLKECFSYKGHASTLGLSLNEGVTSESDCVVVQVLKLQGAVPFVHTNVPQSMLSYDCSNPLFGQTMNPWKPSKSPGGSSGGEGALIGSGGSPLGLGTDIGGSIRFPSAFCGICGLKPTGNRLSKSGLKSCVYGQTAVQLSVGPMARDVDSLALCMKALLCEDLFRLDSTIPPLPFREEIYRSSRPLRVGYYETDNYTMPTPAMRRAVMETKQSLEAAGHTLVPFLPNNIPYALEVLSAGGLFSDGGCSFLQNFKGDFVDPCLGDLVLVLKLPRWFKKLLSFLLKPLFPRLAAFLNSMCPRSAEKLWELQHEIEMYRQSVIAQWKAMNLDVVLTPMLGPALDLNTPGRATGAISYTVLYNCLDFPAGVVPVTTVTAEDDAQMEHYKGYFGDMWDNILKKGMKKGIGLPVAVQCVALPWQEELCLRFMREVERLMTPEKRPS
In words: FAAH activity in brain and liver homogenates following in vivo administration. Also noted: species or system mice. As for the experimental part: For the experiments illustrated in FIG. 3, FAAH activity was assessed through a different method not requiring TLC separation, as described by Jonsson et al: Br. J. Pharmacol. 133:1263-1275, 1997. […] The mice were sacrificed one hour later, the brain and liver removed, and tissue homogenates prepared as described above. [^3H]Anandamide labeled on the ethanolamide moiety was added to the homogenate and incubated at 37° C. for 10 min. The homogenate was then extracted twice with chloroform:methanol 1:1 and the radioactivity in the aqueous phase (containing the released ethanolamide) was counted.

Data set [6] relates to conscious SHR. Briefly: Blood pressure and heart rate in conscious SHR. The class given is in vivo, rat. The settings on record: versus dosage.
Data set [7] has as its system anandamide transporter. Briefly: Inhibition of the anandamide transporter (anandamide uptake). The class given is cell-based. As to conditions: concentrations of up to 20 μM.

Experimental findings from patent publication US8293724B2, “Therapeutic applications of fatty acid amide hydrolase inhibitors” (The United States of America, as represented by the …, priority 2007, dated 2012) are described below.

The structures appear in SMILES notation.

Usually Ki stands for the equilibrium dissociation constant of an inhibitor or competing ligand from its target. For the compound `O=S(=O)(F)CCCCCc1ccc(O)cc1` [AM3506], the glucose intolerance result in data set [1] is “had no such effect”. For the same compound, the Ki in data set [2] is 5770 nM; in data set [3] it was 31 nM; in data set [4], 192 nM. For the same compound, the “inhibition of FAAH in liver” value in data set [5] (AM3506 1 mg/kg) is listed as “devoid of inhibitory potency in liver”. Moreover, the “dose equivalence in inhibition of FAAH in brain” value in data set [5] (AM3506 1 mg/kg versus URB597 10 mg/kg) is reported as “equieffective with 10 mg/kg URB597”. Besides, the MBP entry in data set [6] (n=4, FIG. 4A) is “decrease MBP”. Besides, in data set [6] (n=4, FIG. 5A), the heart rate entry is “moderate bradycardia only at 1 mg/kg dose”. Moreover, the “inhibition of the anandamide transporter” value in data set [7] was “did not inhibit”.
